# Measurements from patent US20260042764A1, “COMPOSITIONS AND METHODS FOR INHIBITION OF KRAS” (TheRas, Inc., priority 2022, published 2026).
# What was measured:
# [1] = system: Capan-2 cells (KRAS G12V); assay: Cell-based pERK HTRF assay in Capan-2 cells (Biological Example 5); details: Homo sapiens, Capan-2, Capan-2 (KRAS G12V) cells
# Procedure: (§1) Biological Example 5: Cell-based PERK HTRF assay in AsPC-1, SW1900, HPAC, Capan-2, RKN, H358, HCT116, KP-2, H1573, A549, MKN1, and HT1080 cells
# (§2) The inhibition of ERK phosphorylation, as measured using the HTRF Advanced Phospho-ERK 1/2 (Thr202/Tyr204) Detection Assay kit (Perkin Elmer), was used to determine the effectiveness of test compounds in disrupting KRAS-driven protein/effector signaling in cells.
# (§3) On day 1, cells were seeded into 96-well plates at 2.5×10^4 cells/well in 100 μL of complete growth media supplemented with 10% fetal bovine serum (FBS) and incubated at 37° C., in the presence of 5% CO2.
# (§4) On day 2, cells were treated with compounds diluted in DMSO at 0.25% final DMSO concentration. Compounds were dosed in a 9-point concentration curve with three-fold dilution between concentrations. Cells were incubated in the presence of compound for two hours at 37° C. Following this treatment period, cells were harvested by aspirating the media, adding 40 μL of kit-supplied 1x lysis buffer per well, and shaking for 30 minutes at 250 rpm at room temperature.
# (§5) Following cell lysis, samples were homogenized by pipetting up and down twenty times and 16 μL of cell lysate per well was transferred from the 96-well cell culture plate to two wells of a 384-well detection plate. A complete detection buffer was prepared by diluting D2 and Eu Cryptate antibodies 1:20 in kit-provided detection solution, 4 μL of complete detection buffer was then added to each well with lysate. Plates were incubated with gentle rocking for 24 hours at 4° C.
# (§6) Following this incubation period, plates were centrifuged at 500×g for one minute and analyzed on a CLARIOstar plate reader. Data was imported into Microsoft Excel and the signal from the 665 nm channel was divided by the signal from the 620 nm channel. % pERK was calculated as: […]
# (§7) Data was imported to the Prism software package (Graphpad) and EC50 values were calculated using the log (inhibitor) vs, response—variable slopc (Four parameters) model.
# SW1900 cells (KRAS G12D) [2] = assay: 3D Cell viability assay in SW1900 cells (Biological Example 6); type: cell-based; details: Homo sapiens; SW1990 (text: SW1900, KRAS G12D) spheroids, 72 hours
# Procedure: (§8) Biological Example 6: 3D Cell viability assay in AsPC-1, SW1900, HPAC, Capan-2, RKN, H358, HCT116, KP-2, H1573, A549, MKN1, and HT1080 cells
# (§9) The inhibition of cellular viability as a result of test compound treatment in a spheroid assay was measured using the CellTiter-Glow 3D Cell Viability Assay (Promega).
# (§10) On Day 1, 1000 cells per well were seeded in 150 μL of complete growth media supplemented with 10% fetal bovine serum (FBS) and incubated at 37° C., in the presence of 5% CO2 in 96-well ultra-low attachment microplates (Corning) for 48 hours undisturbed to allow spheroids to form.
# (§11) Following spheroid formation, cells were treated with compounds diluted in DMSO at 0.25% final DMSO concentration. Compounds were dosed in a 9-point concentration curve with three-fold dilution between concentrations. Cells were incubated in the presence of compound for 72 hours at 37° C., in the presence of 5% CO2.
# (§12) Following this incubation period, the kit-provided CTG reagent was allowed to equilibrate for 30 minutes at room temperature, 150 μL of equilibrated CTG reagent was added to each well, and the plate was sealed before shaking at 250 rpm for 10 minutes at room temperature to lyse the cells, 150 μL of lysate per well was transferred to a 96-well plate and luminescence was read on a CLARIOstar plate reader.
# (§13) Data was imported into the Prism software package (Graphpad) and EC50 values were calculated using the log (inhibitor) vs, response—variable slope (Four parameters) model.
# H358 cells (KRAS G12C) [3] = assay: Cell-based pERK HTRF assay in H358 cells (Biological Example 5); details: Homo sapiens, NCI-H358, H358 (KRAS G12C) cells
# Procedure: as §1, §2, §3, §4, §5, §6, §7
# HPAC cells (KRAS G12D) [4] = assay: 3D Cell viability assay in HPAC cells (Biological Example 6); type: cell-based; details: Homo sapiens, HPAC, 72 h, HPAC (KRAS G12D) spheroids
# Procedure: as §8, §9, §10, §11, §12, §13
# HPAC cells (KRAS G12D) [5] = assay: Cell-based pERK HTRF assay in HPAC cells (Biological Example 5); details: Homo sapiens, HPAC
# Procedure: as §1, §2, §3, §4, §5, §6, §7
# HCT116 cells (KRAS G13D) = assay: 3D Cell viability assay in HCT116 cells (Biological Example 6); type: cell-based; details: Homo sapiens, HCT-116; HCT116 (KRAS G13D) spheroids, 72 hours
# Procedure: as §8, §9, §10, §11, §12, §13
# SW1900 cells (KRAS G12D) [6] = assay: Cell-based pERK HTRF assay in SW1900 cells (Biological Example 5); details: Homo sapiens, SW1990, SW1990 cells (text: SW1900, KRAS G12D)
# Procedure: as §1, §2, §3, §4, §5, §6, §7
# [7] = system: MKN1 cells (KRAS amplification); assay: Cell-based pERK HTRF assay in MKN1 cells (Biological Example 5); details: Homo sapiens, MKN-1, MKN cells (MKN1, KRAS amplification)
# Procedure: as §1, §2, §3, §4, §5, §6, §7
# [8] = system: Capan-2 cells (KRAS G12V); assay: 3D Cell viability assay in Capan-2 cells (Biological Example 6); type: cell-based; details: Homo sapiens; Capan-2 (KRAS G12V) spheroids, 72 hours
# Procedure: as §8, §9, §10, §11, §12, §13
# AsPC-1 cells (KRAS G12D) = assay: 3D Cell viability assay in AsPC-1 cells (Biological Example 6); type: cell-based; details: Homo sapiens, ASPC1; AsPC-1 (KRAS G12D) spheroids, 72 hours
# Procedure: as §8, §9, §10, §11, §12, §13
# H358 cells (KRAS G12C) [9] = assay: 3D Cell viability assay in H358 cells (Biological Example 6); type: cell-based; details: Homo sapiens, NCI-H358; H358 (KRAS G12C) spheroids, 72 hours
# Procedure: as §8, §9, §10, §11, §12, §13
# [10] = system: MKN1 cells (KRAS amplification); assay: 3D Cell viability assay in MKN1 cells (Biological Example 6); type: cell-based; details: Homo sapiens, MKN-1; MKN (MKN1, KRAS amplification) spheroids, 72 hours
# Procedure: as §8, §9, §10, §11, §12, §13
# RKN cells (KRAS G12V) [11] = assay: Cell-based pERK HTRF assay in RKN cells (Biological Example 5)
# Procedure: as §1, §2, §3, §4, §5, §6, §7
# RKN cells (KRAS G12V) [12] = assay: 3D Cell viability assay in RKN cells (Biological Example 6); type: cell-based; details: RKN (KRAS G12V) spheroids, 72 hours
# Procedure: as §8, §9, §10, §11, §12, §13
Compound,IC50 [1],IC50 (SW1900 cells (KRAS G12D) [2]),IC50 (H358 cells (KRAS G12C) [3]),IC50 (HPAC cells (KRAS G12D) [5]),IC50 (HCT116 cells (KRAS G13D)),IC50 (SW1900 cells (KRAS G12D) [6]),IC50 [7],IC50 (AsPC-1 cells (KRAS G12D)),IC50 (H358 cells (KRAS G12C) [9]),IC50 [10],IC50 (RKN cells (KRAS G12V) [11]),IC50 (HPAC cells (KRAS G12D) [4]),IC50 [8],IC50 (RKN cells (KRAS G12V) [12])
CCC(=O)N1CC[C@@H](N(C)c2nc(OC[C@@]34CCCN3C[C@H](F)C4)nc3c(F)c(-c4ccc(F)c5sc(N)c(C#N)c45)c(C(F)(F)F)cc23)[C@H]1C [Compound 260],≤ 100 nM,100 to 1000 nM,≤ 100 nM,100 to 1000 nM,100 to 1000 nM,≤ 100 nM,≤ 100 nM,–,≤ 100 nM,–,≤ 100 nM,100 to 1000 nM,≤ 100 nM,≤ 100 nM
"N#Cc1c(N)sc2c(F)ccc(-c3c(C(F)(F)F)cc4c(N5CCOCC5)nc(OC[C@@]56CCCN5C[C@H](F)C6)nc4c3F)c12 (single isomer, unassigned) [Compound 198]",≤ 100 nM,–,≤ 100 nM,100 to 1000 nM,≤ 100 nM,≤ 100 nM,≤ 100 nM,–,≤ 100 nM,≤ 100 nM,–,100 to 1000 nM,≤ 100 nM,–
C[C@@H]1[C@H](N(C)c2nc(OC[C@@]34CCCN3C[C@H](F)C4)nc3c(F)c(-c4ccc(F)c5sc(N)c(C#N)c45)c(C(F)(F)F)cc23)CCN1C(=O)C1CC1 [Compound 258],–,≤ 100 nM,≤ 100 nM,> 1000 nM,100 to 1000 nM,≤ 100 nM,≤ 100 nM,–,≤ 100 nM,–,–,100 to 1000 nM,–,–

# More lines, main results first:
IC50 [1],IC50 (SW1900 cells (KRAS G12D) [2]),IC50 (H358 cells (KRAS G12C) [3]),IC50 (HPAC cells (KRAS G12D) [5]),IC50 (HCT116 cells (KRAS G13D)),IC50 (SW1900 cells (KRAS G12D) [6]),IC50 [7],IC50 (AsPC-1 cells (KRAS G12D)),IC50 (H358 cells (KRAS G12C) [9]),IC50 [10],IC50 (RKN cells (KRAS G12V) [11]),Compound,IC50 (HPAC cells (KRAS G12D) [4]),IC50 [8],IC50 (RKN cells (KRAS G12V) [12])
≤ 100 nM,≤ 100 nM,≤ 100 nM,≤ 100 nM,100 to 1000 nM,≤ 100 nM,≤ 100 nM,≤ 100 nM,≤ 100 nM,≤ 100 nM,–,CN(Cc1cccnc1N)c1nc(OC[C@@]23CCCN2C[C@H](F)C3)nc2c(F)c(-c3ccc(F)c4sc(N)c(C#N)c34)c(C(F)(F)F)cc12 [Compound 390],100 to 1000 nM,≤ 100 nM,–
≤ 100 nM,≤ 100 nM,≤ 100 nM,≤ 100 nM,100 to 1000 nM,≤ 100 nM,≤ 100 nM,–,≤ 100 nM,≤ 100 nM,–,CCN(c1nc(OC[C@@]23CCCN2C[C@H](F)C3)nc2c(F)c(-c3ccc(F)c4sc(N)c(C#N)c34)c(Cl)cc12)[C@@H]1CCN(C(=O)C2CC2)[C@@H]1C [Compound 337],100 to 1000 nM,100 to 1000 nM,–
≤ 100 nM,≤ 100 nM,≤ 100 nM,100 to 1000 nM,100 to 1000 nM,≤ 100 nM,≤ 100 nM,–,≤ 100 nM,–,–,N#Cc1c(N)sc2c(F)ccc(-c3c(C(F)(F)F)cc4c(N5CCC[C@@H](O)C5)nc(OC[C@@]56CCCN5C[C@H](F)C6)nc4c3F)c12 [Compound 234],> 1000 nM,–,–
